From PubChem BioAssay (NCI)
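The compound was tested at five concentrations on cells cultured in 96-well plates, with a 48-hour exposure period. GI50 is the concentration that inhibits growth by half. TGI: total growth inhibition.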

These compounds were tested on MDA-MB-468 breast (assay: DTP human tumour cell line panel, 48 h).

Compound | GI50 [µM] | TGI [µM]
C/C=C(\C)C(=O)O[C@@H]1C(O)[C@H]2OC(COC(=O)CCC(=O)CCCCCC[C@H](CCCCC)O[C@@H]3OC(C)[C@H](OC(C)=O)C(O)[C@H]3O2)[C@H]1OC(=O)/C=C/c1ccccc1 (some centres undefined) | < 0.01 | 1.18
Nc1nc2c(c3ncccc13)C(c1cccc(Cl)c1)Cc1ncccc1-2 (centres undefined) | 1.61 | 22.7
Cn1ccc(=Nc2ccc(NC(=O)c3ccc(N=c4ccn(C)c5ccc([N+](=O)[O-])cc45)cc3)cc2)cc1 | 7.28 | > 100
C=C1C(=O)O[C@H]2[C@H]1CC/C(COC(=O)C(=O)c1c[nH]c3ccc(OC)cc13)=C\CC[C@@]1(C)O[C@@H]21 | 2.17 | 4.77
COC(=O)c1c2c(c(C)[n+]([O-])c1C)C(=O)C=C(NCc1cccc(OC)c1)C2=O | 0.257 | 0.797
O=C1C(Cl)=C(Nc2ccc3cn[nH]c3c2)C(=O)c2ccccc21 | 1.14 | 2.4
N#CC1C(=N)Cc2ccccc2-c2ccccc21 (centres undefined) | 3.15 | 13.4
Nc1c(C(=O)c2cccc(OCCN3CCOCC3)c2)cnn1-c1ccc(F)cc1 | > 25 | > 25
COc1ccc(C2NCCc3c2[nH]c2ccccc32)cc1CN1CCN(c2ccc(F)cc2)CC1 (centres undefined) | 1.67 | 3.36
CN1CCN(CC(=O)Nc2ccc3ncnc(Nc4ccc(Oc5cccc(C(F)(F)F)c5)c(Cl)c4)c3c2)CC1 | 1.16 | 2.66
Cc1ccc(S(=O)(=O)Oc2ccc3c4c(c(=O)oc3c2)CCCCC4)cc1 | 2.77 | > 100
CS(=O)(=O)N1CCN(Cc2cc3nc(-c4cccc5[nH]ncc45)nc(N4CCOCC4)c3s2)CC1 (tested in a mixture with another compound) | 0.109 | 0.697
CN(C)CCNC(=O)c1cccc2cc3ccccc3nc12 | 1.26 | 4.21
CCOC(=O)/C=C1\SC(=Nc2ccc(C#N)cc2)N(CCN2C(=O)/C(=C/C(=O)OCC)SC2=Nc2ccc(C#N)cc2)C1=O | 3.1 | 17.4
Cc1ccc(N=C2CSc3nnc(-c4csc5c4CCCC5)n3N2)cc1 | 0.142 | > 50
COC(=O)[C@]12CC[C@@H](C)[C@H](C)[C@@H]1C1=CC[C@@H]3[C@@]4(C)C(C=O)=C[C@@](C)(COC(C)=O)[C@@H]4[C@H](O)C[C@@]3(C)[C@]1(C)CC2 | 2.04 | 4.4
NC1=NC(c2ccccc2)N=C(Nc2ccccc2)N1 (centres undefined) | 44.4 | > 100
COC(=O)c1ccc(=O)c2nc3/c(=C/O)c(O)cc(=O)c3[nH]c12 | 0.937 | 48.5
COc1ccc(-c2cnc(-c3ccc(F)cc3)[nH]2)cc1 | 2.22 | 7

Compound | GI50 [µM] | TGI [µM]
C=C(CNCCc1ccc(O)cc1)[C@@H]1CC[C@]2(CO)CC[C@]3(C)[C@H](CC[C@@H]4[C@@]5(C)CCC(=O)C(C)(C)[C@@H]5CC[C@]43C)[C@@H]12 | 1.53 | 3.1
Nc1ccn([C@H]2C[C@@H](O)[C@@H](CO)S2)c(=O)n1 | > 100 | > 100
N#C/C(=C\c1ccc(Br)cc1)n1nnc2cccc(F)c21 | 0.327 | 1.15
CC[N+](CC)=c1ccc2nc3c(cc(NCc4ccccc4)c4ccccc43)oc-2c1 | 0.134 | 1.07
COc1ncc(-c2nc3c(n2C(C)C)[C@H](c2ccc(Cl)cc2)N(c2cc(Cl)cn(C)c2=O)C3=O)c(OC)n1 | 18.2 | 71.4
O=C(Oc1ccc([N+](=O)[O-])cc1)N1CCN(Cc2cccc(Oc3ccccc3)c2)CC1 | 19.1 | > 100
COc1cc2cc(Oc3ccc(NC(=O)Nc4ccccc4)cc3)c(C)nc2cc1OCCN1CCCCC1 | 5.64 | 10.8
COc1ccc(/C=C(/C(=O)N2CCCC2)c2cc(OC)c(OC)c(OC)c2)cc1N | 1.28 | > 100
CCNC(=O)Oc1ccc(/C(=C(/C)c2ccc(Cl)cc2)c2ccc(OCCN3CCCCCC3)cc2)cc1 | 1.44 | 3.07
COc1cc(NN=C(c2ccc(O)cc2)c2ccc(O)cc2)c([N+](=O)[O-])cc1[N+](=O)[O-] | 12.5 | 25
Nc1nc2ccc([C@@H]3Nc4ccc5[nH]ncc5c4[C@H]4[C@H]5CCC(C5)[C@H]43)cc2s1 | 0.403 | 2.53
Nc1ccc(C#Cc2cncnc2Nc2ccc(OCc3cccc(F)c3)c(Cl)c2)cc1 | 1.15 | 9.24
O=C1/C(=C/c2ccccc2)SC(=Nc2ccccc2)N1Nc1ccccc1 | 14 | > 100
CCCCCCCCOc1ccc(/C=N/Nc2cc(C)nc3ccc(Cl)cc23)cc1 | 1.79 | 3.42
O=C(Nc1cnn2ccc(N3CCC[C@@H]3c3cc(F)ccc3F)nc12)N1CC[C@H](O)C1 | > 100 | > 100
COc1ccc2nc(NCCCNCCO)c3sc4ccc(F)cc4c(=O)c3c2c1 | 1.71 | 3.28
CN1CCN(c2ccc(-c3cnc4c(-c5csc6ccccc56)cnn4c3)cc2)CC1 | > 15 | > 15
CC(CN)[C@@H]1CC[C@]2(CO)CC[C@]3(C)[C@H](CC[C@@H]4[C@@]5(C)CCC(NCCO)C(C)(C)[C@@H]5CC[C@]43C)[C@@H]12 (some centres undefined) | 1.48 | 3.08
